Literature values in US20090098217A1, “COMPOSITIONS AND METHODS FOR PROMOTING THICKER HAIR” (priority 2007, published 2009).
Where two headings read alike, the source gives them in different places.

Assays:
[1] = tested on: 5-alpha-reductase; settings: in vitro
[2] = tested on: 5-alpha-reductase; settings: 5 or 10 mg of zinc injected in rat prostate

SMILES: [Zn] [zinc]
- conversion of testosterone to DHT ([1]; low concentrations of zinc): enhance conversion of testosterone to DHT
- conversion of testosterone to DHT ([1]; mM concentrations of zinc): inhibited it
- 5-alpha-reductase activity [2]: significantly reduced 5-alpha-reductase activity
